Reference: PubChem BioAssay AID2060336 (Molecular Pharmacology Branch, DTP, NCI, 2025)

Tested on: 958767-090-R-J1-PDC spheroid growth
Experiment: Anticancer human tumor 958767-090-R-J1-PDC patient-derived head and neck squamous carcinoma cell line growth inhibition [IpAb]
Details: spheroids with HUVEC and MSC; for IC50: curve of first compound; for viability, T/C: stronger effect = lower value
In short: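 Multi-cell spheroids of 60% tumour cells, 25% HUVEC and 15% MSC in ultra-low-attachment U-bottom wells, treated with agents combined with ipatasertib or abemaciclib. Half-log ranges top out near clinical Cmax, or 10 microM when Cmax is unknown.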

[1] = second compound 0.1 µM, first compound 0.0316 µM
[2] = second compound 0.1 µM, first compound 0.1 µM
[3] = second compound 0.316 µM, first compound 0.0316 µM
[4] = second compound 0.316 µM, first compound 0.1 µM
[5] = second compound 1 µM, first compound 0.0316 µM
[6] = second compound 1 µM, first compound 0.1 µM
[7] = second compound 3.16 µM, first compound 0.0316 µM
[8] = second compound 3.16 µM, first compound 0.1 µM
[9] = second compound 10 µM, first compound 0.0316 µM
[10] = second compound 10 µM, first compound 0.1 µM
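Also: spheroids exposed to agents for 7 days.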
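For viability, T/C in this document: 100% = DMSO vehicle control wells.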

Q: What does the source list for `CC(=O)c1c(C)c2cnc(Nc3ccc(N4CCNCC4)cn3)nc2n(C2CCCC2)c1=O` + CCN1CCN(Cc2ccc(Nc3ncc(F)c(-c4cc(F)c5nc(C)n(C(C)C)c5c4)n3)nc2)CC1?
A: IC50 (second compound 0.01 µM): > 300 nM; IC50 (second compound 0.0316 µM): > 300 nM; IC50 (second compound 0.1 µM): 137 nM; IC50 (second compound 0.316 µM): 265 nM; IC50 (second compound 1 µM): > 300 nM; viability, T/C (second compound 0.01 µM, first compound 0.000949 µM): 80.7%; viability, T/C (second compound 0.01 µM, first compound 0.003 µM): 72.5%; viability, T/C (second compound 0.01 µM, first compound 0.00949 µM): 66.5%; viability, T/C (second compound 0.01 µM, first compound 0.03 µM): 64.3%; viability, T/C (second compound 0.01 µM, first compound 0.0949 µM): 59.6%; viability, T/C (second compound 0.01 µM, first compound 0.3 µM): 53.4%; viability, T/C (second compound 0.0316 µM, first compound 0.000949 µM): 73.8%; viability, T/C (second compound 0.0316 µM, first compound 0.003 µM): 75.5%; viability, T/C (second compound 0.0316 µM, first compound 0.00949 µM): 54.2%; viability, T/C (second compound 0.0316 µM, first compound 0.03 µM): 53.8%; viability, T/C (second compound 0.0316 µM, first compound 0.0949 µM): 56.5%; viability, T/C (second compound 0.0316 µM, first compound 0.3 µM): 49.7%; viability, T/C (second compound 0.1 µM, first compound 0.000949 µM): 61.5%; viability, T/C (second compound 0.1 µM, first compound 0.003 µM): 56.2%; viability, T/C (second compound 0.1 µM, first compound 0.00949 µM): 65.7%; viability, T/C (second compound 0.1 µM, first compound 0.03 µM): 53.6%; viability, T/C (second compound 0.1 µM, first compound 0.0949 µM): 44.4%; viability, T/C (second compound 0.1 µM, first compound 0.3 µM): 50.9%; viability, T/C (second compound 0.316 µM, first compound 0.000949 µM): 54.2%; viability, T/C (second compound 0.316 µM, first compound 0.003 µM): 50.7%; viability, T/C (second compound 0.316 µM, first compound 0.00949 µM): 57.2%; viability, T/C (second compound 0.316 µM, first compound 0.03 µM): 52.9%; viability, T/C (second compound 0.316 µM, first compound 0.0949 µM): 51.1%; viability, T/C (second compound 0.316 µM, first compound 0.3 µM): 47.9%; viability, T/C (second compound 1 µM, first compound 0.000949 µM): 65.2%; viability, T/C (second compound 1 µM, first compound 0.003 µM): 63.8%; viability, T/C (second compound 1 µM, first compound 0.00949 µM): 60.6%; viability, T/C (second compound 1 µM, first compound 0.03 µM): 65.2%; viability, T/C (second compound 1 µM, first compound 0.0949 µM): 62.2%; viability, T/C (second compound 1 µM, first compound 0.3 µM): 53.1%

Q: `CC(C)n1nc(-c2ccc3oc(N)nc3c2)c2c(N)ncnc21` + CC(C)NCC(C(=O)N1CCN(c2ncnc3c2C(C)CC3O)CC1)c1ccc(Cl)cc1 was tested. Which IC50 (second compound 0.1 µM) did it give?
A: 9.11 nM

Q: And the IC50 (second compound 0.316 µM)?
A: 1.82 nM

Q: What about the IC50 (second compound 1 µM) of the same compound?
A: 1.13 nM

Q: And the IC50 (second compound 3.16 µM)?
A: 0.83 nM

Q: And the IC50 (second compound 10 µM)?
A: < 0.316 nM

Q: And the viability, T/C (second compound 0.1 µM, first compound 0.000316 µM)?
A: 78.4%

Q: What about the viability, T/C (second compound 0.1 µM, first compound 0.001 µM) of the same compound?
A: 72.8%

Q: And the viability, T/C (second compound 0.1 µM, first compound 0.00316 µM)?
A: 53.6%

Q: And the viability, T/C (second compound 0.1 µM, first compound 0.01 µM)?
A: 57.9%

Q: What about the viability, T/C [1] of the same compound?
A: 32.8%

Q: And the viability, T/C [2]?
A: 32.6%

Q: And the viability, T/C (second compound 0.316 µM, first compound 0.000316 µM)?
A: 72.4%

Q: And the viability, T/C (second compound 0.316 µM, first compound 0.001 µM)?
A: 58.5%

Q: And the viability, T/C (second compound 0.316 µM, first compound 0.00316 µM)?
A: 43.5%

Q: What about the viability, T/C (second compound 0.316 µM, first compound 0.01 µM) of the same compound?
A: 29.8%

Q: And the viability, T/C [3]?
A: 37.4%

Q: What about the viability, T/C [4] of the same compound?
A: 33.4%

Q: What about the viability, T/C (second compound 1 µM, first compound 0.000316 µM) of the same compound?
A: 59.1%

Q: And the viability, T/C (second compound 1 µM, first compound 0.001 µM)?
A: 51.9%

Q: And the viability, T/C (second compound 1 µM, first compound 0.00316 µM)?
A: 40.7%

Q: And the viability, T/C (second compound 1 µM, first compound 0.01 µM)?
A: 34%

Q: And the viability, T/C [5]?
A: 29.1%

Q: What about the viability, T/C [6] of the same compound?
A: 25%

Q: What about the viability, T/C (second compound 3.16 µM, first compound 0.000316 µM) of the same compound?
A: 61.4%

Q: And the viability, T/C (second compound 3.16 µM, first compound 0.001 µM)?
A: 47.2%

Q: What about the viability, T/C (second compound 3.16 µM, first compound 0.00316 µM) of the same compound?
A: 37.2%

Q: What about the viability, T/C (second compound 3.16 µM, first compound 0.01 µM) of the same compound?
A: 26%

Q: And the viability, T/C [7]?
A: 21.1%

Q: And the viability, T/C [8]?
A: 17.2%

Q: And the viability, T/C (second compound 10 µM, first compound 0.000316 µM)?
A: 47.4%

Q: What about the viability, T/C (second compound 10 µM, first compound 0.001 µM) of the same compound?
A: 42.5%

Q: And the viability, T/C (second compound 10 µM, first compound 0.00316 µM)?
A: 34.6%

Q: What about the viability, T/C (second compound 10 µM, first compound 0.01 µM) of the same compound?
A: 17%

Q: What about the viability, T/C [9] of the same compound?
A: 13.6%

Q: What about the viability, T/C [10] of the same compound?
A: 13%

Q: Which IC50 (second compound 0.1 µM) does the source give for `CCCS(=O)(=O)Nc1ccc(F)c(C(=O)c2c[nH]c3ncc(-c4ccc(Cl)cc4)cc23)c1F` + CC(C)NCC(C(=O)N1CCN(c2ncnc3c2C(C)CC3O)CC1)c1ccc(Cl)cc1 here?
A: > 10000 nM

Q: And the IC50 (second compound 0.316 µM)?
A: 9060 nM

Q: And the IC50 (second compound 1 µM)?
A: 5370 nM

Q: And the IC50 (second compound 3.16 µM)?
A: 3950 nM

Q: And the IC50 (second compound 10 µM)?
A: < 31.6 nM

Q: And the viability, T/C [1]?
A: 93.3%

Q: What about the viability, T/C [2] of the same compound?
A: 89.6%

Q: What about the viability, T/C (second compound 0.1 µM, first compound 0.316 µM) of the same compound?
A: 94.7%

Q: And the viability, T/C (second compound 0.1 µM, first compound 1 µM)?
A: 95.9%

Q: And the viability, T/C (second compound 0.1 µM, first compound 3.16 µM)?
A: 86.9%

Q: And the viability, T/C (second compound 0.1 µM, first compound 10 µM)?
A: 73.9%

Q: What about the viability, T/C [3] of the same compound?
A: 67.9%

Q: And the viability, T/C [4]?
A: 78.2%

Q: And the viability, T/C (second compound 0.316 µM, first compound 0.316 µM)?
A: 74.1%

Q: What about the viability, T/C (second compound 0.316 µM, first compound 1 µM) of the same compound?
A: 59.6%

Q: And the viability, T/C (second compound 0.316 µM, first compound 3.16 µM)?
A: 72.5%

Q: And the viability, T/C (second compound 0.316 µM, first compound 10 µM)?
A: 48.2%

Q: What about the viability, T/C [5] of the same compound?
A: 68.4%

Q: And the viability, T/C [6]?
A: 61.2%

Q: What about the viability, T/C (second compound 1 µM, first compound 0.316 µM) of the same compound?
A: 59.8%

Q: And the viability, T/C (second compound 1 µM, first compound 1 µM)?
A: 60.2%

Q: And the viability, T/C (second compound 1 µM, first compound 3.16 µM)?
A: 60.8%

Q: What about the viability, T/C (second compound 1 µM, first compound 10 µM) of the same compound?
A: 37.7%

Q: What about the viability, T/C [7] of the same compound?
A: 59.6%

Q: And the viability, T/C [8]?
A: 56.9%

Q: And the viability, T/C (second compound 3.16 µM, first compound 0.316 µM)?
A: 51%

Q: What about the viability, T/C (second compound 3.16 µM, first compound 1 µM) of the same compound?
A: 51.7%

Q: And the viability, T/C (second compound 3.16 µM, first compound 3.16 µM)?
A: 54.4%

Q: What about the viability, T/C (second compound 3.16 µM, first compound 10 µM) of the same compound?
A: 32.7%

Q: And the viability, T/C [9]?
A: 46.1%

Q: What about the viability, T/C [10] of the same compound?
A: 50.3%

Q: And the viability, T/C (second compound 10 µM, first compound 0.316 µM)?
A: 54.9%

Q: And the viability, T/C (second compound 10 µM, first compound 1 µM)?
A: 42.3%

Q: What about the viability, T/C (second compound 10 µM, first compound 3.16 µM) of the same compound?
A: 40.8%

Q: What about the viability, T/C (second compound 10 µM, first compound 10 µM) of the same compound?
A: 14.6%
